Source: US7473688B2, “Indolobenzazepine HCV NS5B inhibitors” (Bristol-Myers Squibb Company, priority 2005, dated 2009)

biological target: T1, HCV NS5B (Hepatitis C virus genotype 1b, UniProt Q9WMX2); experiment: HCV NS5B RdRp enzyme assay (preincubation protocol); assay type: biochemical; conditions: Table 1, read-out: IC50*
T1 construct: The protein was expressed with an 18 amino acid C-terminal truncation to enhance the solubility; made in house; host or cells: E. coli BL21 (DE3), pET21a
Protocol: HCV NS5B RdRp cloning, expression, and purification. The cDNA encoding the NS5B protein of HCV, genotype 1b, was cloned into the pET21a expression vector. The protein was expressed with an 18 amino acid C-terminal truncation to enhance the solubility. The E. coli competent cell line BL21 (DE3) was used for expression of the protein. Cultures were grown at 37° C. for ˜4 hours until the cultures reached an optical density of 2.0 at 600 nm. The cultures were cooled to 20° C. and induced with 1 mM IPTG. Fresh ampicillin was added to a final concentration of 50 μg/ml and the cells were grown overnight at 20° C.
Cell pellets (3L) were lysed for purification to yield 15-24 mgs of purified NS5B. The lysis buffer consisted of 20 mM Tris-HCl, pH 7.4, 500 mM NaCl, 0.5% triton X-100, 1 mM DTT, 1 mM EDTA, 20% glycerol, 0.5 mg/ml lysozyme, 10 mM MgCl2, 15 ug/ml deoxyribonuclease I, and Complete TM protease inhibitor tablets (Roche). After addition of the lysis buffer, frozen cell pellets were resuspended using a tissue homogenizer. To reduce the viscosity of the sample, aliquots of the lysate were sonicated on ice using a microtip attached to a Branson sonicator. The sonicated lysate was centrifuged at 100,000×g for 1 hr at 4° C. and filtered through a 0.2 μm filter unit (Corning).
The protein was purified using three sequential chromatography steps: Heparin sepharose CL-6B, polyU sepharose 4B, and Hitrap SP sepharose (Pharmacia). The chromatography buffers were identical to the lysis buffer but contained no lysozyme, deoxyribonuclease I, MgCl2 or protease inhibitor and the NaCl concentration of the buffer was adjusted according to the requirements for charging the protein onto the column. Each column was eluted with a NaCl gradient which varied in length from 5-50 column volumes depending on the column type. After the final chromatography step, the resulting purity of the enzyme is >90% based on SDS-PAGE analysis. The enzyme was aliquoted and stored at −80° C.
Standard HCV NS5B RdRp enzyme assay. HCV RdRp genotype 1b assays were run in a final volume of 60 μl in 96 well plates (Costar 3912). The assay buffer is composed of 20 mM Hepes, pH 7.5, 2.5 mM KCl, 2.5 mM MgCl2, 1 mM DTT, 1.6 U RNAse inhibitor (Promega N2515), 0.1 mg/ml BSA (Promega R3961), and 2% glycerol. All compounds were serially diluted (3-fold) in DMSO and diluted further in water such that the final concentration of DMSO in the assay was 2%. HCV RdRp genotype 1b enzyme was used at a final concentration of 28 nM. A polyA template was used at 6 nM, and a biotinylated oligo-dT12 primer was used at 180 nM final concentration. Template was obtained commercially (Amersham 27-4110). Biotinylated primer was prepared by Sigma Genosys. 3H-UTP was used at 0.6 μCi (0.29 μM total UTP). Reactions were initiated by the addition of enzyme, incubated at 30° C. for 60 min, and stopped by adding […] of 50 mM EDTA containing SPA beads (4 μg/μl, Amersham RPNQ 0007). Plates were read on a Packard Top Count NXT after >1 hr incubation at room temperature.
Modified HCV NS5B RdRp enzyme assay. A modified enzyme assay was performed essentially as described for the standard enzyme assay except for the following: The biotinylated oligo dT12 primer was precaptured on streptavidin-coated SPA beads by mixing primer and beads in assay buffer and incubating at room temperature for one hour. Unbound primer was removed after centrifugation. The primer-bound beads were resuspended in 20 mM Hepes buffer, pH 7.5 and used in the assay at final concentrations of […] primer and 0.67 μg/μl beads. Order of addition in the assay: Enzyme (14 nM) was added to diluted compound followed by the addition of a mixture of template (0.2 nM), 3H-UTP (0.6 μCi, 0.29 μM), and primer-bound beads, to initiate the reaction; concentrations given are final. Reactions were allowed to proceed for 4 hours at 30° C.
IC50 values for compounds were determined using seven different [I]. […]

T1 sequence (Q9WMX2 2420-2992): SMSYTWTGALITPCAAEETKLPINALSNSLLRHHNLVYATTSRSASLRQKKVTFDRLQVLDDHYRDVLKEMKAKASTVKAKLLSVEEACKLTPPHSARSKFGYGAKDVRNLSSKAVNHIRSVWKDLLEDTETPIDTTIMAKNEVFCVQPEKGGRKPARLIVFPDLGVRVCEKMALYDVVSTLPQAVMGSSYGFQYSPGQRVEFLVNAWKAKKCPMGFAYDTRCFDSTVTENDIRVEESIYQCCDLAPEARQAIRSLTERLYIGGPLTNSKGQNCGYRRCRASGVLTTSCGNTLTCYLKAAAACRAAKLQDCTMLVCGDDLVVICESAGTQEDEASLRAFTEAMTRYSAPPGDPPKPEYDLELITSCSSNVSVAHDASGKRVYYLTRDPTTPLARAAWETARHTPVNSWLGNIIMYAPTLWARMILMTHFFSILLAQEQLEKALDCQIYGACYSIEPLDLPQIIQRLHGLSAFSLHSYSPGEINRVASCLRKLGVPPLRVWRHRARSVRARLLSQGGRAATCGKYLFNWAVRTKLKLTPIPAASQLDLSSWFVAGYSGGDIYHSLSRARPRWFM

Row | Compound | IC50 [µM]
1 | CN(C)S(=O)(=O)NC(=O)c1ccc2c(C3CCCCC3)c3n(c2c1)CC(NC(=O)N1CCOCC1)Cc1ccccc1-3 (stereo not drawn) [drawing 153] | 0.01 to 1
2 | C[C@@H]1CN(CCNC(=O)C2=Cc3ccccc3-c3c(C4CCCCC4)c4ccc(C(=O)NS(=O)(=O)N(C)C)cc4n3C2)C[C@H](C)O1 [drawing 148] | 0.01 to 1
3 | CN(C)S(=O)(=O)NC(=O)c1ccc2c(C3CCCCC3)c3n(c2c1)CC(NC(=O)N1CCOCC1)Cc1ccccc1-3 (stereo not drawn) [drawing 155] | 0.01 to 1
4 | CC(=O)NN(C)C(=O)C1=Cc2ccccc2-c2c(C3CCCCC3)c3ccc(C(=O)O)cc3n2C1 [drawing 156] | 0.01 to 1
5 | CN(C)S(=O)(=O)NC(=O)c1ccc2c(C3CCCCC3)c3n(c2c1)CC(C(=O)N1CCC(N2CCOCC2)CC1)=Cc1cc(OCc2ccccc2)ccc1-3 [drawing 139] | 0.01 to 1
6 | CN(C)S(=O)(=O)NC(=O)c1ccc2c(C3CCCCC3)c3n(c2c1)CC(C(=O)N1CCC(F)CC1)=Cc1ccccc1-3 [drawing 74] | 0.01 to 1

same assay, conditions: Table 1a, read-out: IC50*

Row | Compound | IC50 [µM]
7 | COc1ccc2c(c1)C=C(C(=O)N1CCN(CC(F)(F)F)CC1)Cn1c-2c(C2CCCCC2)c2ccc(C(=O)NS(=O)(=O)N3CCOCC3)cc21 | 0.01 to 1
8 | O=C(NCc1ccco1)c1ccc2c(C3CCCCC3)c3n(c2c1)CC(C(=O)N1CCC(N2CCOCC2)CC1)=Cc1ccccc1-3 | 0.01 to 1
9 | COc1ccc2c(c1)C=C(C(=O)N1CCN(C(=O)N(C)C)CC1)Cn1c-2c(C2CCCCC2)c2ccc(C(=O)NS(=O)(=O)N(C)C)cc21 | 0.01 to 1
10 | COc1ccc2c(c1)C=C(C(=O)N1CCC(O)(c3cccnc3)CC1)Cn1c-2c(C2CCCCC2)c2ccc(C(=O)NS(=O)(=O)N(C)C)cc21 | 0.01 to 1
11 | COc1ccc2c(c1)C=C(C(=O)N(C)CC(=O)O)Cn1c-2c(C2CCCCC2)c2ccc(C(=O)O)cc21 | 0.01 to 1
12 | CN(C)S(=O)(=O)NC(=O)c1ccc2c(C3CCCCC3)c3n(c2c1)C[C@H](NC(=O)N1CCOCC1)Cc1ccccc1-3 | 0.01 to 1
13 | CN(C)S(=O)(=O)NC(=O)c1ccc2c(C3CCCCC3)c3n(c2c1)CC(NC(=O)C1CCOCC1)Cc1ccccc1-3 (stereo not drawn) | 0.01 to 1
14 | COc1ccc2c(c1)CC(C(=O)N(C)CC(=O)N(C)C)Cn1c-2c(C2CCCCC2)c2ccc(C(=O)NS(=O)(=O)N(C)C)cc21 (stereo not drawn) | 0.01 to 1
15 | COc1ccc2c(c1)C=C(C(=O)N1CCN(c3ncncn3)CC1)Cn1c-2c(C2CCCCC2)c2ccc(C(=O)NS(=O)(=O)N(C)C)cc21 | 0.01 to 1
16 | COc1ccc2c(c1)C[C@@H](C(=O)N1CCC[C@H](OC(C)=O)C1)Cn1c-2c(C2CCCCC2)c2ccc(C(=O)NS(=O)(=O)N(C)C)cc21 [drawing 320] | 0.01 to 1
17 | COc1ccc2c(c1)C=C(C(=O)N(C)CC(=O)N1CCOCC1)Cn1c-2c(C2CCCCC2)c2ccc(C(=O)O)cc21 | 0.01 to 1
18 | Cc1cnc(CNC(=O)c2ccc3c(C4CCCCC4)c4n(c3c2)CC(C(=O)N2CCC(N3CCOCC3)CC2)=Cc2ccccc2-4)cn1 | 0.01 to 1
19 | COC(=O)c1ccc2c(C3CCCCC3)c3n(c2c1)CC(NC(=O)C1CCOCC1)Cc1cc(OC)ccc1-3 (stereo not drawn) | 0.01 to 1
20 | COc1ccc2c(c1)C[C@@H](C(=O)N1CCC[C@H](OC(C)=O)C1)Cn1c-2c(C2CCCCC2)c2ccc(C(=O)NS(=O)(=O)N(C)C)cc21 [drawing 326] | 0.01 to 1
21 | COc1ccc2c(c1)C=C(C(=O)N1CCn3cnnc3C1)Cn1c-2c(C2CCCCC2)c2ccc(C(=O)NS(=O)(=O)N(C)C)cc21 | 0.01 to 1
22 | COc1ccc2c(c1)C=C(C(=O)N1CCN(C(=O)CN)CC1)Cn1c-2c(C2CCCCC2)c2ccc(C(=O)NS(=O)(=O)N(C)C)cc21 | < 0.02
23 | COC(=O)c1ccc2c(C3CCCCC3)c3n(c2c1)CC(C(=O)NCc1ncco1)Cc1cc(OC)ccc1-3 (stereo not drawn) | 0.01 to 1
24 | COc1ccc2c(c1)C=C(C(=O)NCCNC(C)=O)Cn1c-2c(C2CCCCC2)c2ccc(C(=O)NS(=O)(=O)N(C)C)cc21 | 0.01 to 1
25 | O=C(NC[C@H]1CCCO1)c1ccc2c(C3CCCCC3)c3n(c2c1)CC(C(=O)N1CCC(N2CCOCC2)CC1)=Cc1ccccc1-3 | 0.01 to 1

Row | Compound | IC50 [µM]
26 | COc1ccc2c(c1)CC(C(=O)N(C)CC1CCCO1)Cn1c-2c(C2CCCCC2)c2ccc(C(=O)O)cc21 (stereo not drawn) | 0.01 to 1
27 | COc1ccc2c(c1)C=C(C(=O)N1CCOC(CN3CCCC3)C1)Cn1c-2c(C2CCCCC2)c2ccc(C(=O)NS(=O)(=O)N(C)C)cc21 (stereo not drawn) | 0.01 to 1
28 | COc1ccc2c(c1)C=C(C(=O)N1CCN(C(=O)N3CCCC3)CC1)Cn1c-2c(C2CCCCC2)c2ccc(C(=O)NS(=O)(=O)N(C)C)cc21 | 0.01 to 1
29 | COc1ccc2c(c1)C=C(C(=O)N1CCN(c3ccccc3OC)CC1)Cn1c-2c(C2CCCCC2)c2ccc(C(=O)NS(=O)(=O)N(C)C)cc21 | 0.01 to 1
30 | COC(=O)c1ccc2c(C3CCCCC3)c3n(c2c1)CC(NC(=O)NC1CCN(C(=O)C(F)(F)F)CC1)Cc1ccccc1-3 (stereo not drawn) | > 1
31 | O=C(O)c1ccc2c(C3CCCCC3)c3n(c2c1)CC(NC(=O)C1CCOCC1)Cc1ccccc1-3 (stereo not drawn) | 0.01 to 1
32 | COC1CCCC(C(=O)N(C)C2Cc3ccccc3-c3c(C4CCCCC4)c4ccc(C(=O)O)cc4n3C2)C1 (stereo not drawn) | 0.01 to 1
33 | O=C(NCc1cn2ccccc2n1)c1ccc2c(C3CCCCC3)c3n(c2c1)CC(C(=O)N1CCC(N2CCOCC2)CC1)=Cc1ccccc1-3 | 0.01 to 1
34 | COc1ccc2c(c1)CC(N(C)C(=O)C1CCOCC1)Cn1c-2c(C2CCCCC2)c2ccc(C(=O)O)cc21 (stereo not drawn) | < 0.02
35 | CNC(=O)CNC(=O)C1=Cc2cc(OC)ccc2-c2c(C3CCCCC3)c3ccc(C(=O)NS(=O)(=O)N(C)C)cc3n2C1 | 0.01 to 1
36 | CNC(=O)N1CCN(C(=O)C2=Cc3ccccc3-c3c(C4CCCCC4)c4ccc(C(=O)NS(=O)(=O)N(C)C)cc4n3C2)CC1 | 0.01 to 1
37 | COc1ccc2c(c1)C=C(C(=O)N1CCC(C(=O)N(C)C)CC1)Cn1c-2c(C2CCCCC2)c2ccc(C(=O)NS(=O)(=O)N(C)C)cc21 | 0.01 to 1
38 | COc1ccc2c(c1)CC(N(C)C(=O)N1C[C@@H](C)O[C@@H](C)C1)Cn1c-2c(C2CCCCC2)c2ccc(C(=O)NS(=O)(=O)N(C)C)cc21 (stereo partly drawn) | 0.01 to 1
39 | COc1ccc2c(c1)C=C(C(=O)N1CCN(C(C)=O)CC1)Cn1c-2c(C2CCCCC2)c2ccc(C(=O)NS(=O)(=O)N(C)C)cc21 | 0.01 to 1
40 | COC(=O)[C@@H]1C[C@@H](O)CN1C(=O)C1=Cc2cc(OC)ccc2-c2c(C3CCCCC3)c3ccc(C(=O)NS(=O)(=O)N(C)C)cc3n2C1 | 0.01 to 1
41 | CN(C)C(=O)CN(C)C(=O)C1=Cc2ccccc2-c2c(C3CCCCC3)c3ccc(C(=O)O)cc3n2C1 | 0.01 to 1
42 | COc1ccc2c(c1)C=C(C(=O)N1CCC[C@@H](OC(C)=O)C1)Cn1c-2c(C2CCCCC2)c2ccc(C(=O)NS(=O)(=O)N(C)C)cc21 | 0.01 to 1
43 | COc1ccc2c(c1)C=C(C(=O)N1CCOC(c3ccccc3)C1)Cn1c-2c(C2CCCCC2)c2ccc(C(=O)NS(=O)(=O)N(C)C)cc21 (stereo not drawn) | 0.01 to 1
44 | CCN(CC)C(=O)CN(C)C(=O)C1Cc2cc(OC)ccc2-c2c(C3CCCCC3)c3ccc(C(=O)NS(=O)(=O)N(C)C)cc3n2C1 (stereo not drawn) | 0.01 to 1

same assay, conditions: Table 1b, read-out: IC50*

Row | Compound | IC50 [µM]
45 | COC(=O)c1ccc2c(C3CCCCC3)c3n(c2c1)CC(C(=O)N[C@@H]1C2CCC(C)([C@@H]1O)C2(C)C)=Cc1cc(OC)ccc1-3 (stereo partly drawn) | > 12.5
46 | COc1ccc2c(c1)C=C(C(=O)N1C[C@H](CO)[C@@H](O)[C@H](O)C1)Cn1c-2c(C2CCCCC2)c2ccc(C(=O)NS(=O)(=O)N(C)C)cc21 | < 0.02
47 | COC(=O)c1ccc2c(C3CCCCC3)c3n(c2c1)CC(C(=O)NCC=O)=Cc1cc(OC)ccc1-3 | 0.02 to 1
48 | COc1ccc2c(c1)C=C(C(=O)N1C[C@@H](C)N(C(C)C)[C@@H](C)C1)Cn1c-2c(C2CCCCC2)c2ccc(C(=O)NS(=O)(=O)N(C)C)cc21 | 0.02 to 1
